{"source": "patent US12274689B2", "about": "“Compound for the management of feline diabetes” (INCREVET, INC., priority 2019, dated 2025)", "key": {"human SGLT2": {"target": "T1, human SGLT2 (Homo sapiens, UniProt P31639)", "T1 sequence (P31639 1-672)": "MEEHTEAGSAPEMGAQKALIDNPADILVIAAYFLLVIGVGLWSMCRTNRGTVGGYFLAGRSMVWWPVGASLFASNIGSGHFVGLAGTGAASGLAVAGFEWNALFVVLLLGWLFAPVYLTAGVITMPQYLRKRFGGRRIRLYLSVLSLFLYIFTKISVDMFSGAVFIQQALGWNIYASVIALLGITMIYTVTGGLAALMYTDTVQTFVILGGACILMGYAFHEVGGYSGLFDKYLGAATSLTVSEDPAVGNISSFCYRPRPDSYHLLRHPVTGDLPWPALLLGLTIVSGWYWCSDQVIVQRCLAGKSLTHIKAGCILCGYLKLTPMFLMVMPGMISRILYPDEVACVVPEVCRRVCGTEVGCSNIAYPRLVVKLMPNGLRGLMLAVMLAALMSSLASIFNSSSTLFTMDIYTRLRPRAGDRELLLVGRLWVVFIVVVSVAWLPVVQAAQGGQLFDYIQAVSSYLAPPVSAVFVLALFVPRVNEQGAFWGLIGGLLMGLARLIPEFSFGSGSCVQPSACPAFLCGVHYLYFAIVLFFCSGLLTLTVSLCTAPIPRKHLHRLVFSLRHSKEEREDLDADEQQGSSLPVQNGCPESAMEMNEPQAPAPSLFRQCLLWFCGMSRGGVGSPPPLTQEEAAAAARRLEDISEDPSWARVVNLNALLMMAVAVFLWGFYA", "assay": "selectivity for human SGLT2 compared to human SGLT1"}, "ZDF rats": {"tested_on": "ZDF rats", "assay": "plasma glucose in male Zucker Diabetic Fatty rats, daily oral dosing (study 338)", "format": "in vivo", "details": "for plasma glucose levels / plasma glucose levels, Day 21 Δ: male ZDF rats; for plasma glucose levels, Day 21 Δ: change Day 0 to Day 21"}, "healthy cats": {"tested_on": "healthy cats", "assay": "21-day high-dose study in healthy cats (study 3)", "format": "in vivo, cat", "details": "15 mg kg^−1 bid (30 mg kg^−1 day^−1) for 21 days", "text": "All cats regained weight when the dosing ended. Because diabetic cats are often presented as a result of weight loss, the degree of […] would clearly be adverse and incompatible with treatment."}}, "note": "Marks after values point to notes of the source that are not given here."}
{"smiles": "OC[C@H]1O[C@@H](c2ccc(Cl)c(Cc3ccc(OCCOC4CC4)cc3)c2)[C@H](O)[C@@H](O)[C@@H]1O", "note": "[bexagliflozin, (2S,3R,4R,5S,6R)-2-(4-chloro-3-(4-(2-cyclopropoxyethoxy)benzyl)phenyl)-6-(hydroxymethyl)tetrahydro-2H-pyran-3,4,5-triol]", "values": [{"measurement": "selectivity for human SGLT2 compared to human SGLT1", "setting": "human SGLT2", "result": 2400, "unit": "fold"}, {"measurement": "change in plasma glucose levels", "setting": "ZDF rats; ZDF rats, after 7 days, 0.067 mg kg^−1", "result": "+2.8%"}, {"measurement": "change in plasma glucose levels", "setting": "ZDF rats; ZDF rats, after 7 days, 0.2 mg kg^−1", "result": "−16.8", "unit": "%"}, {"measurement": "change in plasma glucose levels", "setting": "ZDF rats; ZDF rats, after 7 days, 0.67 mg kg^−1", "result": "−17.1", "unit": "%"}, {"measurement": "change in plasma glucose levels", "setting": "ZDF rats; ZDF rats, after 7 days, 2.0 mg kg^−1", "result": "−25.3", "unit": "%"}, {"measurement": "change in plasma glucose levels", "setting": "ZDF rats; ZDF rats, after 14 days, 0.067 mg kg^−1", "result": "+9.5%"}, {"measurement": "change in plasma glucose levels", "setting": "ZDF rats; ZDF rats, after 14 days, 0.2 mg kg^−1", "result": "−5.6", "unit": "%"}, {"measurement": "change in plasma glucose levels", "setting": "ZDF rats; ZDF rats, after 14 days, 0.67 mg kg^−1", "result": "−8.1", "unit": "%"}, {"measurement": "change in plasma glucose levels", "setting": "ZDF rats; ZDF rats, after 14 days, 2.0 mg kg^−1", "result": "−25.1", "unit": "%"}, {"measurement": "change in plasma glucose levels", "setting": "ZDF rats; ZDF rats, after 21 days, 0.067 mg kg^−1", "result": "+15.5%"}, {"measurement": "change in plasma glucose levels", "setting": "ZDF rats; ZDF rats, after 21 days, 0.2 mg kg^−1", "result": "+4.3%"}, {"measurement": "change in plasma glucose levels", "setting": "ZDF rats; ZDF rats, after 21 days, 0.67 mg kg^−1", "result": "+1.5%"}, {"measurement": "change in plasma glucose levels", "setting": "ZDF rats; ZDF rats, after 21 days, 2.0 mg kg^−1", "result": "−15.4", "unit": "%"}, {"measurement": "blood glucose, level below which it was not reduced", "setting": "ZDF rats; ZDF rats, sole agent, any dose group", "result": "≥ 287", "unit": "mg/dL"}, {"measurement": "plasma glucose levels", "setting": "ZDF rats; 0.067 mg kg^−1 oral once daily, Day 0", "result": "373.2 ± 29.5", "unit": "mg/dL"}, {"measurement": "plasma glucose levels", "setting": "ZDF rats; 0.067 mg kg^−1 oral once daily, Day 7", "result": "383.7 ± 33.1", "unit": "mg/dL"}, {"measurement": "plasma glucose levels", "setting": "ZDF rats; 0.067 mg kg^−1 oral once daily, Day 14", "result": "408.6 ± 19.6", "unit": "mg/dL"}, {"measurement": "plasma glucose levels", "setting": "ZDF rats; 0.067 mg kg^−1 oral once daily, Day 21", "result": "431.0 ± 19.7", "unit": "mg/dL"}, {"measurement": "plasma glucose levels, Day 21 Δ", "setting": "ZDF rats; 0.067 mg kg^−1 oral once daily", "result": "+57.8 ± 41.7 mg dL^−1"}, {"measurement": "plasma glucose levels", "setting": "ZDF rats; 0.2 mg kg^−1 oral once daily, Day 0", "result": "386.6 ± 28.2", "unit": "mg/dL"}, {"measurement": "plasma glucose levels", "setting": "ZDF rats; 0.2 mg kg^−1 oral once daily, Day 7", "result": "321.8 ± 19.5", "unit": "mg/dL"}, {"measurement": "plasma glucose levels", "setting": "ZDF rats; 0.2 mg kg^−1 oral once daily, Day 14", "result": "364.9 ± 13.1", "unit": "mg/dL"}, {"measurement": "plasma glucose levels", "setting": "ZDF rats; 0.2 mg kg^−1 oral once daily, Day 21", "result": "403.2 ± 20.1", "unit": "mg/dL"}, {"measurement": "plasma glucose levels, Day 21 Δ", "setting": "ZDF rats; 0.2 mg kg^−1 oral once daily", "result": "+16.6 ± 36.6 mg dL^−1"}, {"measurement": "plasma glucose levels", "setting": "ZDF rats; 0.67 mg kg^−1 oral once daily, Day 0, n = 10", "result": "384.4 ± 27.5", "unit": "mg/dL"}, {"measurement": "plasma glucose levels", "setting": "ZDF rats; 0.67 mg kg^−1 oral once daily, Day 7", "result": "318.7 ± 32.0", "unit": "mg/dL"}, {"measurement": "plasma glucose levels", "setting": "ZDF rats; 0.67 mg kg^−1 oral once daily, Day 14", "result": "353.4 ± 18.9", "unit": "mg/dL"}, {"measurement": "plasma glucose levels", "setting": "ZDF rats; 0.67 mg kg^−1 oral once daily, Day 21, n = 9", "result": "374.2 ± 37.3", "unit": "mg/dL"}, {"measurement": "plasma glucose levels, Day 21 Δ", "setting": "ZDF rats; 0.67 mg kg^−1 oral once daily, n = 9", "result": "+5.4 ± 30.8^b mg dL^−1"}, {"measurement": "plasma glucose levels", "setting": "ZDF rats; 2 mg kg^−1 oral once daily, Day 0", "result": "384.8 ± 16.5", "unit": "mg/dL"}, {"measurement": "plasma glucose levels", "setting": "ZDF rats; 2 mg kg^−1 oral once daily, Day 7", "result": "287.4 ± 27.4", "unit": "mg/dL"}, {"measurement": "plasma glucose levels", "setting": "ZDF rats; 2 mg kg^−1 oral once daily, Day 14", "result": "288.3 ± 17.1", "unit": "mg/dL"}, {"measurement": "plasma glucose levels", "setting": "ZDF rats; 2 mg kg^−1 oral once daily, Day 21", "result": "325.4 ± 13.0", "unit": "mg/dL"}, {"measurement": "plasma glucose levels, Day 21 Δ", "setting": "ZDF rats; 2 mg kg^−1 oral once daily", "result": "-59.4 ± 22.4", "unit": "mg/dL"}, {"measurement": "body weight", "setting": "healthy cats", "result": "cats lost weight throughout the study"}]}
